{"source": "patent EP1369114A1", "about": "“Use of tryptophan metabolites as pharmaceutical agents” (Terness, Peter, Priv. Doz. Dr., priority 2002, dated 2003)", "system": "CD3-stimulated T cells", "experiment": "CD3 stimulation of T cells: metabolite titration curves, 3[H]-thymidin incorporation", "format": "cell-based, human", "conditions": "anti-CD3 antibody, 3 days", "description": "• (a) Allogeneic T-cell response. DCs were infected with recombinant IDO-adeno-GFP (DC-IDO-GFP), IDO-adeno (DC-IDO) or with control adenoviruses (DC-adeno) at a MOI (multiplicity of infection) up to 500 for 2 days. Lymphocytes (PBMCs) were separated from peripheral blood of healthy donors by density gradient centrifugation and typed for HLA antigens. Only HLA-DR-different responder lymphocytes were used for DC-induced stimulation. Native DCs only, lymphocytes only, native DCs + allogeneic lymphocytes, DC-IDO-GFP + allogeneic lymphoytes, DC-IDO + allogeneic lymphoytes, DC-adeno + allogeneic lymphocytes (each time 10^5 DC + 10^5 lymphocytes in 0.2ml medium) were cultured in RPMI 1640 medium (Gibco BRL Life Technologies GmbH, Eggenstein, Germany) with 10% fetal calf serum (FCS) (final tryptophan concentration 5.25 mg/l = 25.69 uM) and Penicillin G/Streptomycin. […] In order to verify whether IDO expression or adenovirus infection harm the DCs, 10^5 cells were infected with IDO-adeno-GFP, IDO-adenovirus, or adenovirus only at a stepwise decreasing MOI (500, 250, 125, ........ 3.9) and cell viability was measured in FACS following double staining with 7-AAD and anti-CD83 antibody-PE. The percentage of dead cells never exceeded 30% for any MOI following IDO-adeno-GFP- or IDO-adeno-infection and 40% following adenovirus(control)-infection. Moreover, these values were not higher than those of native DCs cultured for the same period of time. The experiment was repeated using ethidium bromide or trypan blue staining with virtually the same result. […] Peripheral blood lymphocytes were cultured (10^5 cells/well) in RPMI 1640 (10% FCS) with anti CD3 monoclonal antibody (Ortho Diagnostic Systems Inc., Raritan, NJ) (final dilution 1:200). […] Kynurenine, 3-hydroxykynurenine, anthranilic acid, 3-hydroxyanthranilic acid, and quinolinic acid (Sigma-Aldrich Chemie GmbH, Taufkirchen, Germany)(for all substances purity>98%) were dissolved in RPMI 1640 and added to cell cultures at various concentrations. In an other experiment, to determine whether the metabolites have an additive effect, equal concentrations of the compounds were mixed and added to the cultures. […] Positive controls consisted of CD3-stimulated cells without metabolites and negative controls of unstimulated cells. • (d) Restimulation of suppressed T cells. Lymphocytes (10^5 cells/well) were cultured in RPMI 1640 (10% FCS) with anti-CD3 monoclonal antibody (final dilution 1:200) and kynurenine (dilution series). […] Controls consisted of cells prestimulated with anti-CD3 but not pretreated with kynurenine. In an other restimulation experiment lymphocytes were stimulated with allogeneic DCs as described, in the presence (47-1500µM) or absence of kynurenine. Control cultures contained DCs or lymphocytes only. After 5 days the cells were extensively washed, and restimulated with an identical number of DCs derived from the same donor or from third party donors. […] In order to define the concentration of tryptophan which reduces T- lymphocyte proliferation in our test system, 10^5 lymphocytes were incubated in tryptophan-free RPMI 1640 medium (Gibco BRL Life Technologies) with or without 10% FCS, stimulated with anti-CD3 monoclonal antibody, and various amounts (0-38µM) of tryptophan were added. Unimpaired proliferation was observed down to 0.30µM (medium with FCS) and 1 .20µM (without FCS). Complete inhibition was not obtained at any concentration (positive control 100% proliferation; maximal suppression in medium with FCS: approx. 66% and without FCS: approx. 33%). All cell cultures were done in triplicate.\nAll tests were carried out in triplicate and results are given as mean +standard deviation. […] Thereafter, the concentration of substance giving 50% proliferation was calculated by regression.", "note": "pIC50: −log10 of the molar value.", "data": [{"smiles": "Nc1ccccc1C(=O)CC(N)C(=O)O", "note": "(centres unmarked) [kynurenine]", "values": [{"measurement": "pIC50", "setting": "Homo sapiens, T-cell, 72 h, single substance, read-out: I50 of proliferation of CD3-stimulated T cells", "value": 3.26}, {"measurement": "suppression of T cell response (in words)", "value": "suppressed proliferation"}]}]}
